US20230233543A1, “COMPOUNDS FOR THE TREATMENT OF COVID-19” (Dompe' Farmaceutici SPA, priority 2020, published 2023)
pIC50: −log10 of the molar value. Where a name gives a salt, the structure may show the parent alone. Read-outs that look alike come from different tables or passages of the source.

Legend:
[1] = tested on: SARS-CoV-2 (BetaCov/Belgium/GHB-03021/2020) in VeroE6-EGFP cells; assay: microbe, parasite or virus in culture; format: cell-based; conditions: for pIC50: Severe acute respiratory syndrome coronavirus 2
SARS-CoV-2 3CL-Pro = SARS-CoV-2 3CL-Pro (Severe acute respiratory syndrome coronavirus 2, UniProt P0DTD1); assay: biochemical; conditions: read-out: 3CL-Pro Inhibition [%]
SARS-CoV-2 PLpro = SARS-CoV-2 PLpro (Severe acute respiratory syndrome coronavirus 2, UniProt P0DTD1); assay: PLpro enzymatic assay (ISG15-AMC substrate); format: biochemical; conditions: read-out: PL_Pro Inhibition [%]

SMILES	% Confluence [1] [%]	% Inhibition [1] [%]	pIC50 ([1]; read-out: IC50)	pIC50 [1]	inhibition at 20 µM (SARS-CoV-2 3CL-Pro) [%]	inhibition at 20 µM (SARS-CoV-2 PLpro) [%]	inhibition at 20 µM (SARS-CoV-2 3CL-Pro; primary screen at 20 µM, without DTT, read at 15 min, normalized to zinc pyrithione (100%) and DMSO (0%)) [%]
c1ccc2c(c1)Sc1ccccc1N2C[C@H]1CN2CCC1CC2 (stereo in doubt) [Mequitazine, 10-(Quinuclidin-3-ylmethyl)-10H-phenothiazine]	61.74	62.09	5.22				
Cc1cc(O)c2c(=O)c3c(O)cc(O)c4c5c(O)cc(O)c6c(=O)c7c(O)cc(C)c8c1c2c(c34)c(c78)c65 [Hypericin, 1,3,4,6,8,13-Hexahydroxy-10,11-dimethylphenanthro[1,10,9,8-opqra]perylene-7,14-dione]	20.85			6.60	45.7	40.1	
CC(C)c1ccc2c(c1)C(N1CCN(CCO)CC1)Cc1ccc(F)cc1S2 (centres unmarked) [Isofloxythepin, 2-[4-(9-fluoro-3-propan-2-yl-5,6-dihydrobenzo[b][1]benzothiepin-5-yl)piperazin-1-yl]ethanol]	67.67	35.39	3.97				
CC(C)(C)NCc1ccc(Nc2ccnc3cc(Cl)ccc23)cc1O [N-tert-Butylisoquine, 2-[(tert-butylamino)methyl]-5-[(7-chloroquinolin-4-yl)amino]phenol]	77.86	44.99					
Nc1ccc2cc3ccc(N)cc3nc2c1 [Proflavine, 3,6-diaminoacridine]	8.56	208.4					89.9
O=C(c1ccc(OCCN2CCCCC2)cc1)c1c(-c2ccc(O)cc2)sc2cc(O)ccc12 [Raloxifen hydrochloride, 1-[6-Hydroxy-2-(4-hydroxyphenyl)benzo[b]thien-3-yl]-1-[4-[2-(1-piperidinyl)ethoxy]phenyl]methanone]	45.26	70.75	5.01				
CC(C)(Sc1cc(C(C)(C)C)c(O)c(C(C)(C)C)c1)Sc1cc(C(C)(C)C)c(OC(=O)CCC(=O)O)c(C(C)(C)C)c1 [Succinobucol, Succinic acid 2,6-di-tert-butyl-4-[1-(3,5-di-tert-butyl-4-hydroxyphenylsulfanyl)-1-methylethylsulfanyl]phenyl monoester]	18.73	37.53					
